These results are taken from patent USRE42890E1, “Furazanobenzimidazoles” (Basilea Pharmaceutica AG, priority 2003, dated 2011).

pIC50: −log10 of the molar value.

For one test, the system named is HeLa. As to the kind of experiment: MTS proliferation assay, HeLa. To be noted: 72 h incubation, read-out: MTS proliferation assay IC 50 HeLa. The format is cell-based, human. On the procedure: (§1) Cell lines are cultured in RPMI-1640 tissue culture medium containing either 5% or 10% fetal calf serum, 0.05 mM 2-mercaptoethanol, 2 mM glutamine and penicillin/streptomycin 50 μg/ml (complete medium) (Sigma, Buchs, Switzerland). General growth conditions are 37° C. and 7.5% CO2.
(§2) The following human cell lines (either EGFP transfected or not) are being used: HeLa (ATCC: CCL-2), KB (ATCC: CCL-17), MCF7 (ATCC: HTB-22), SK-BR-3 (ATCC: HTB-30), SK-Mel 1 (ATCC: HTB-67), SK-Mel 28 (ATCC: HTB-72), PC-3 (ATCC: CRL-1435), SW 480 (ATCC: CCL-228), NCl-H460 (ATCC: HTB-177), NCl-H1792 (ATCC: CRL-5895), HT1080 (ATCC: CCL-21), Jurkat (ATCC: TIB-152), Ramos (ATCC: CRL-1596), Raji (ATCC: CCL-86), H9 (ATCC: HTB-176), Hut78 (ATCC: TIB-161), K562 (ATCC: CCL 243), HL-60 (ATCC: CCL 240), U-87MG (ATCC: HTB-14), HepG2 (ATCC: HB-8065), U-2 OS (ATCC: HTB-96), Saos-2 (ATCC: HTB-85), U937 (ATCC: CRL 1593), Hs 578T (ATCC: HTB 126), HBL-100 (ATCC: HTB 124), Molt-4 (ATCC: CRL 1582).
(§3) The assay is performed in 96 well tissue culture plates. The cells (range: 1.5*10^3-10^4) are seeded out in 80 μl complete medium 24 h prior to compound treatment. The test compounds are added in 20 μl complete medium containing max 5% DMSO. The final compound concentrations in the assays are 10 μM, 3 μM, 1 μM and 0.3 μM, respectively. The assay plates are incubated for 72 h at culture conditions. The MTS reagent is prepared according to the manufacturer's protocol (Promega G1111). 20 μl MTS reagent are added to each well, the assay plates are quickly spun and incubated for another 3 h at culture conditions. Subsequently, the plates are shortly shaked and absorption measured with a microplate-reader at 492 nm.
(Tetrazolium assays rely on reduction of a dye to a coloured formazan, in cell work by metabolically active cells.)
As for `Nc1nonc1-c1nc2ccccc2n1CC(=O)c1ccccc1Cl` [Example 32], the pIC50 is 6.00 to 7.00.

Consider `CON=C(Cn1c(-c2nonc2N)nc2ccccc21)c1ccccc1` (mixture of isomers) [Example 18], for which the pIC50 is less than 6.00.

For the compound `CON=C(Cn1c(-c2nonc2N)nc2ccccc21)c1cccc(Cl)c1` (mixture of isomers) [Example 37], the pIC50 is 6.00 to 7.00.

For another test, the system named is MRC5. As to the kind of experiment: MTS proliferation assay, MRC5. Type of test: cell-based. To be noted: MRC5, 72 h incubation; read-out: MTS proliferation assay IC 50 MRC5. On the procedure: as §1, §3
Regarding `Nc1nonc1-c1nc2ccccc2n1CC(=O)c1ccccc1Cl` [Example 32], the pIC50 was less than 6.00.

Regarding `CON=C(Cn1c(-c2nonc2N)nc2ccccc21)c1ccccc1` (mixture of isomers) [Example 18], the pIC50 was 6.00 to 7.00.

As for `CON=C(Cn1c(-c2nonc2N)nc2ccccc21)c1cccc(Cl)c1` (mixture of isomers) [Example 37], the pIC50 is 6.00 to 7.00.

For another test, the system named is Jurkat. As to the kind of experiment: MTS proliferation assay, Jurkat. To be noted: 72 h incubation, read-out: MTS proliferation assay IC 50 Jurkat. The format is cell-based, human. As to the method:
as §1, §2, §3
Consider `Nc1nonc1-c1nc2ccccc2n1CC(=O)c1ccccc1Cl` [Example 32], for which the pIC50 is 6.00 to 7.00.

As to `CON=C(Cn1c(-c2nonc2N)nc2ccccc21)c1ccccc1` (mixture of isomers) [Example 18], the pIC50 was 6.00 to 7.00.

Take `CON=C(Cn1c(-c2nonc2N)nc2ccccc21)c1cccc(Cl)c1` (mixture of isomers) [Example 37]: the pIC50 is 6.00 to 7.00.

The next test concerns adherent cells or suspension cells. As to the kind of experiment: Hoechst 33342 nuclear staining (fraction of apoptotic nuclei). Type of test: cell-based. Set-up: key: 0 relating to no activity; 1 relating to weak activity comprising less than 70% of the cells; score 2 relating to strong activity comprising more than 70% of the cells. The conditions noted are these: H460, conc 0.01 μm. As to the method: as §1
This assay is performed in 96 well tissue culture plates. Appropriate number of cells (adherent cells: 3-5*10^3, suspension cells: 8-10*10^3) are being seeded out in 80 μl complete medium. Adherent cells are incubated for 24 h for proper spreading out before addition of test compounds while suspension cells are immediately treated with test compounds after seeding out. The test compounds are added in 20 μl complete medium containing max 5% DMSO. […] After 24 h or 48 h incubation at culture conditions, 10 μl medium containing Hoechst 33342 dye (Sigma B-2261) at 2-5 μg/ml are added to each well. The assay plates are then further incubated for 30 minutes and subsequently analyzed with a standard inverted fluorescence microscope.
The readout allows the determination of the fraction of apoptotic nuclei as well as other morphological criteria specific for apoptosis as a function of the treatment. The following scores are used: 0 relating to no activity, 1 relating to weak activity comprising less than 70% of the cells and score 2 relating to strong activity comprising more than 70% of the cells.
For the compound `Nc1nonc1-c1nc2ccccc2n1CC(=O)c1ccccc1Cl` [Example 32], the “Hoechst 33342 nuclear staining score” value was determined as 0.

For the compound `CON=C(Cn1c(-c2nonc2N)nc2ccccc21)c1ccccc1` (mixture of isomers) [Example 18], the “Hoechst 33342 nuclear staining score” value was 0.

For the compound `CON=C(Cn1c(-c2nonc2N)nc2ccccc21)c1cccc(Cl)c1` (mixture of isomers) [Example 37], the “Hoechst 33342 nuclear staining score” value is given as 0.

Staying with this test, now noted: H460, conc 0.1 μm.
`Nc1nonc1-c1nc2ccccc2n1CC(=O)c1ccccc1Cl` [Example 32]: the “Hoechst 33342 nuclear staining score” value stood at 0.

In the case of `CON=C(Cn1c(-c2nonc2N)nc2ccccc21)c1ccccc1` (mixture of isomers) [Example 18], the “Hoechst 33342 nuclear staining score” value is on record as 0.

With `CON=C(Cn1c(-c2nonc2N)nc2ccccc21)c1cccc(Cl)c1` (mixture of isomers) [Example 37], the “Hoechst 33342 nuclear staining score” value is recorded as 0.

The test is the same for the next values; noted with them: H460, conc 1 μm.
Turning to `Nc1nonc1-c1nc2ccccc2n1CC(=O)c1ccccc1Cl` [Example 32], the “Hoechst 33342 nuclear staining score” value is recorded as 0.

Take `CON=C(Cn1c(-c2nonc2N)nc2ccccc21)c1ccccc1` (mixture of isomers) [Example 18]: the “Hoechst 33342 nuclear staining score” value is 1 (1 relating to weak activity comprising less than 70% of the cells).

`CON=C(Cn1c(-c2nonc2N)nc2ccccc21)c1cccc(Cl)c1` (mixture of isomers) [Example 37]: the “Hoechst 33342 nuclear staining score” value worked out at 0.

The test is the same for the next values; noted with them: HeLa, conc 0.01 μm.
Turning to `Nc1nonc1-c1nc2ccccc2n1CC(=O)c1ccccc1Cl` [Example 32], the “Hoechst 33342 nuclear staining score” value stood at 0.

On to `CON=C(Cn1c(-c2nonc2N)nc2ccccc21)c1ccccc1` (mixture of isomers) [Example 18], for which the “Hoechst 33342 nuclear staining score” value is reported as 0.

Take `CON=C(Cn1c(-c2nonc2N)nc2ccccc21)c1cccc(Cl)c1` (mixture of isomers) [Example 37]: the “Hoechst 33342 nuclear staining score” value was found to be 0.

The same test, now with this note: HeLa, conc 0.1 μm.
Turning to `Nc1nonc1-c1nc2ccccc2n1CC(=O)c1ccccc1Cl` [Example 32], the “Hoechst 33342 nuclear staining score” value came out at 0.

Take `CON=C(Cn1c(-c2nonc2N)nc2ccccc21)c1ccccc1` (mixture of isomers) [Example 18]: the “Hoechst 33342 nuclear staining score” value was 0.

With `CON=C(Cn1c(-c2nonc2N)nc2ccccc21)c1cccc(Cl)c1` (mixture of isomers) [Example 37], the “Hoechst 33342 nuclear staining score” value worked out at 0.

The test is the same for the next values; noted with them: HeLa, conc 1 μm.
With `Nc1nonc1-c1nc2ccccc2n1CC(=O)c1ccccc1Cl` [Example 32], the “Hoechst 33342 nuclear staining score” value is given as 0.

Take `CON=C(Cn1c(-c2nonc2N)nc2ccccc21)c1ccccc1` (mixture of isomers) [Example 18]: the “Hoechst 33342 nuclear staining score” value is given as 2 (score 2 relating to strong activity comprising more than 70% of the cells).

Take `CON=C(Cn1c(-c2nonc2N)nc2ccccc21)c1cccc(Cl)c1` (mixture of isomers) [Example 37]: the “Hoechst 33342 nuclear staining score” value is 0.

Still in this test, the particulars now being: Jily, conc 0.01 μm.
As to `Nc1nonc1-c1nc2ccccc2n1CC(=O)c1ccccc1Cl` [Example 32], the “Hoechst 33342 nuclear staining score” value worked out at 0.

In the case of `CON=C(Cn1c(-c2nonc2N)nc2ccccc21)c1cccc(Cl)c1` (mixture of isomers) [Example 37], the “Hoechst 33342 nuclear staining score” value came to 0.

Staying with this test, now noted: Jily, conc 0.1 μm.
`Nc1nonc1-c1nc2ccccc2n1CC(=O)c1ccccc1Cl` [Example 32]: the “Hoechst 33342 nuclear staining score” value was 0.

For the compound `CON=C(Cn1c(-c2nonc2N)nc2ccccc21)c1cccc(Cl)c1` (mixture of isomers) [Example 37], the “Hoechst 33342 nuclear staining score” value was determined as 0.

Staying with this test, now noted: Jily, conc 1 μm.
Take `Nc1nonc1-c1nc2ccccc2n1CC(=O)c1ccccc1Cl` [Example 32]: the “Hoechst 33342 nuclear staining score” value was determined as 0.

In the case of `CON=C(Cn1c(-c2nonc2N)nc2ccccc21)c1cccc(Cl)c1` (mixture of isomers) [Example 37], the “Hoechst 33342 nuclear staining score” value is on record as 2 (score 2 relating to strong activity comprising more than 70% of the cells).

Staying with this test, now noted: Jurkat, conc 0.01 μm.
Take `Nc1nonc1-c1nc2ccccc2n1CC(=O)c1ccccc1Cl` [Example 32]: the “Hoechst 33342 nuclear staining score” value amounted to 0.

As for `CON=C(Cn1c(-c2nonc2N)nc2ccccc21)c1ccccc1` (mixture of isomers) [Example 18], the “Hoechst 33342 nuclear staining score” value was determined as 0.

The same test, now with this note: Jurkat, conc 0.1 μm.
As to `Nc1nonc1-c1nc2ccccc2n1CC(=O)c1ccccc1Cl` [Example 32], the “Hoechst 33342 nuclear staining score” value turned out to be 0.

Regarding `CON=C(Cn1c(-c2nonc2N)nc2ccccc21)c1ccccc1` (mixture of isomers) [Example 18], the “Hoechst 33342 nuclear staining score” value turned out to be 0.

The same test, now with this note: Jurkat, conc 1 μm.
For the compound `Nc1nonc1-c1nc2ccccc2n1CC(=O)c1ccccc1Cl` [Example 32], the “Hoechst 33342 nuclear staining score” value is on record as 2 (score 2 relating to strong activity comprising more than 70% of the cells).

Consider `CON=C(Cn1c(-c2nonc2N)nc2ccccc21)c1ccccc1` (mixture of isomers) [Example 18], for which the “Hoechst 33342 nuclear staining score” value was 2 (score 2 relating to strong activity comprising more than 70% of the cells).

The same test, now with this note: MRC5, conc 0.01 μm.
As for `Nc1nonc1-c1nc2ccccc2n1CC(=O)c1ccccc1Cl` [Example 32], the “Hoechst 33342 nuclear staining score” value is listed as 0.

`CON=C(Cn1c(-c2nonc2N)nc2ccccc21)c1ccccc1` (mixture of isomers) [Example 18]: the “Hoechst 33342 nuclear staining score” value came out at 0.

For the compound `CON=C(Cn1c(-c2nonc2N)nc2ccccc21)c1cccc(Cl)c1` (mixture of isomers) [Example 37], the “Hoechst 33342 nuclear staining score” value was 0.

Still in this test, the particulars now being: MRC5, conc 0.1 μm.
With `Nc1nonc1-c1nc2ccccc2n1CC(=O)c1ccccc1Cl` [Example 32], the “Hoechst 33342 nuclear staining score” value was 0.

Turning to `CON=C(Cn1c(-c2nonc2N)nc2ccccc21)c1ccccc1` (mixture of isomers) [Example 18], the “Hoechst 33342 nuclear staining score” value was 0.

Take `CON=C(Cn1c(-c2nonc2N)nc2ccccc21)c1cccc(Cl)c1` (mixture of isomers) [Example 37]: the “Hoechst 33342 nuclear staining score” value is 0.

Still in this test, the particulars now being: MRC5, conc 1 μm.
As to `Nc1nonc1-c1nc2ccccc2n1CC(=O)c1ccccc1Cl` [Example 32], the “Hoechst 33342 nuclear staining score” value amounted to 0.

Consider `CON=C(Cn1c(-c2nonc2N)nc2ccccc21)c1ccccc1` (mixture of isomers) [Example 18], for which the “Hoechst 33342 nuclear staining score” value was 1 (1 relating to weak activity comprising less than 70% of the cells).

On to `CON=C(Cn1c(-c2nonc2N)nc2ccccc21)c1cccc(Cl)c1` (mixture of isomers) [Example 37], for which the “Hoechst 33342 nuclear staining score” value is recorded as 1 (1 relating to weak activity comprising less than 70% of the cells).

Still in this test, the particulars now being: PBLs, conc 0.01 μm.
Take `Nc1nonc1-c1nc2ccccc2n1CC(=O)c1ccccc1Cl` [Example 32]: the “Hoechst 33342 nuclear staining score” value turned out to be 0.

`CON=C(Cn1c(-c2nonc2N)nc2ccccc21)c1ccccc1` (mixture of isomers) [Example 18]: the “Hoechst 33342 nuclear staining score” value is recorded as 0.

As to `CON=C(Cn1c(-c2nonc2N)nc2ccccc21)c1cccc(Cl)c1` (mixture of isomers) [Example 37], the “Hoechst 33342 nuclear staining score” value came out at 0.

Staying with this test, now noted: PBLs, conc 0.1 μm.
Consider `Nc1nonc1-c1nc2ccccc2n1CC(=O)c1ccccc1Cl` [Example 32], for which the “Hoechst 33342 nuclear staining score” value was 0.

On to `CON=C(Cn1c(-c2nonc2N)nc2ccccc21)c1ccccc1` (mixture of isomers) [Example 18], for which the “Hoechst 33342 nuclear staining score” value worked out at 0.

In the case of `CON=C(Cn1c(-c2nonc2N)nc2ccccc21)c1cccc(Cl)c1` (mixture of isomers) [Example 37], the “Hoechst 33342 nuclear staining score” value came to 0.

Staying with this test, now noted: PBLs, conc 1 μm.
Consider `Nc1nonc1-c1nc2ccccc2n1CC(=O)c1ccccc1Cl` [Example 32], for which the “Hoechst 33342 nuclear staining score” value was 0.

For the compound `CON=C(Cn1c(-c2nonc2N)nc2ccccc21)c1ccccc1` (mixture of isomers) [Example 18], the “Hoechst 33342 nuclear staining score” value was 0.

Consider `CON=C(Cn1c(-c2nonc2N)nc2ccccc21)c1cccc(Cl)c1` (mixture of isomers) [Example 37], for which the “Hoechst 33342 nuclear staining score” value came to 0.
